# Results as given in patent US4568490A, “Aminopropylaminobleomycin derivatives and process for preparation thereof” (Zaidan Hojin Biseibutsu Kagaku Kenkyu Kai, priority 1981, dated 1986).
# Assays:
# [1] = test system: Mycobacterium smegmatis ATCC 607; experiment: Antimicrobial activity, agar plate-cylinder method; type: cell-based; settings: Cu-free form; bleomycin A2 (Cu-free form) standard assumed 1,000 mcg/mg
# Procedure: (§1) The activity was assayed against the above test microorganisms by the method of agar plate-cylinder, assuming the potency of bleomycin A2 (Cu-free form), used as standard, to be 1,000 mcg/mg.
# [2] = test system: Hela S3 cells; experiment: Growth inhibitory activity against Hela S3 cells; type: cell-based; settings: Cu-free form; Hela S3, 3 days incubation with compound
# Procedure: The percentage growth inhibition was calculated using the equation: […] wherein A is the ultimate number of cells on the third day from the addition of a test sample, B is the ultimate number of cells in the control (without the addition of test sample), and C is the number of cells on the day of addition of the test sample.
# [3] = test system: Bacillus subtilis; experiment: Antimicrobial activity, agar plate-cylinder method; type: cell-based; settings: Cu-free form; bleomycin A2 (Cu-free form) standard assumed 1,000 mcg/mg
# Procedure: (1) Antimicrobial activity against Mycobacterium smegmatis ATCC 697 and Bacillus subtilis.
# as §1
# [4] = test system: Lymphocytic leukemia P-388; experiment: In vivo antitumor activity, murine lymphocytic leukemia P-388; settings: BDF1-SLC mice, i.p. transplant, once daily for 9 days, 30 days observation; T/C more than 130 effective
# Procedure: The following data with respect to the testing of a group of the presently claimed substances in vivo according to a standard test method involving murine lymphocytic leukemia P-388 is presented to lend further assurance as to the utility of the compounds as inhibitors of mammalian tumors.
# Lymphocytic leukemia P-388 cells (1×10^5 /0.2 ml) were transplanted intraperitoneally into male BDF1 -SLC mice (5 mice/group). Each of the compounds of this invention was diluted with physiological saline to various concentrations. Each dilution was administered at a dose of 0.1 ml/10 g of body weight once daily for 9 days, starting on the day after the day of the transplantation. The mice of the control group were administered physiological saline.
# The average number of days that the group receiving the compound of this invention survived was calculated. The figure obtained was divided by the average number of survival days for the control group, and was multiplied by 100 (T/C (%)).
# T/C value more than 130 was considered to be effective.
# [5] = test system: ICR strain mice; experiment: Pulmonary toxicity (pulmonary fibrosis) in mice, intraperitoneal injection; type: in vivo; settings: 5 mg/kg i.p. once a day for 10 days; for Grade of pulmonary fibrosis, % / Incidence of pulmonary fibrosis, % / Incidence: number of mice suffering from pulmonary fibrosis / Grade: total score of pulmonary fibrosis/total number of test animal: autopsy after 5 weeks; for Incidence: number of mice suffering from pulmonary fibrosis: affected/total mice; for Grade: total score of pulmonary fibrosis/total number of test animal: score 0-6 points; for Grade of pulmonary fibrosis, Ratio / Incidence of pulmonary fibrosis, Ratio: reference of the ratio not stated
# Method in brief: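 Male ICR mice, 15 weeks old, 9 per group, received 5 mg/kg intraperitoneally once daily for 10 days. They were autopsied after 5 weeks' observation for pulmonary fibrosis incidence and grade: 1, alveolar exudate/septal fibrosis-like change; 2, fibrosis in several areas; 4, scattered fibrosis; 6, fibrosis over >2/3 of area.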
smiles,measurement,setting,value
Cc1c(N)nc(C(CC(N)=O)NCC(N)C(N)=O)nc1C(=O)NC(C(=O)NC(C)C(O)C(C)C(=O)NC(C(=O)NCCc1nc(-c2nc(C(=O)NCCCN(C)CCCNCC3CCCCCCC3)cs2)cs1)C(C)O)C(OC1OC(CO)C(O)C(O)C1OC1OC(CO)C(O)C(OC(N)=O)C1O)c1cnc[nH]1.Cl.Cl.Cl (stereo not shown) [Compound No. 22],"Antimicrobial potency of Cu--free compound, against Mycobacterium smegmatis ATCC 607",[1],22860 mcg potency per mg
same,50% growth inhibition concentration (ID50) of Cu--free compound against cultured Hela cell,[2],0.45 µg/mL
same,"Antimicrobial potency of Cu--free compound, against Bacillus subtilis",[3],12300 mcg potency per mg
same,Max. T/C on Mouse Lymphocytic Leukemia P 388,[4],174%
same,"Grade of pulmonary fibrosis, %",[5],0%
same,"Incidence of pulmonary fibrosis, %",[5],0%
same,Incidence: number of mice suffering from pulmonary fibrosis,[5],0/9
same,Grade: total score of pulmonary fibrosis/total number of test animal,[5],0/27
same,"Grade of pulmonary fibrosis, Ratio",[5],0.000
same,"Incidence of pulmonary fibrosis, Ratio",[5],0.00
"CC[N+](CC)(CCCNCCc1ccc(Cl)cc1)CCCNC(=O)c1csc(-c2csc(CCNC(=O)C(NC(=O)C(C)C(O)C(C)NC(=O)C(NC(=O)c3nc(C(CC(N)=O)NCC(N)C(N)=O)nc(N)c3C)C(OC3OC(CO)C(O)C(O)C3OC3OC(CO)C(O)C(OC(N)=O)C3O)c3cnc[nH]3)C(C)O)n2)n1 (stereo not shown) [compound 46, 3-{N,N--Diethyl-N--[3'-(2""-p-chlorophenylethylamino)propyl]amino}propylaminoBLM]","Antimicrobial potency of Cu--free compound, against Mycobacterium smegmatis ATCC 607",[1],17480 mcg potency per mg
same,50% growth inhibition concentration (ID50) of Cu--free compound against cultured Hela cell,[2],0.52 µg/mL
same,"Antimicrobial potency of Cu--free compound, against Bacillus subtilis",[3],13310 mcg potency per mg
same,Max. T/C on Mouse Lymphocytic Leukemia P 388,[4],150%
same,"Grade of pulmonary fibrosis, %",[5],0%
same,"Incidence of pulmonary fibrosis, %",[5],0%
same,Incidence: number of mice suffering from pulmonary fibrosis,[5],0/9
same,Grade: total score of pulmonary fibrosis/total number of test animal,[5],0/27
same,"Grade of pulmonary fibrosis, Ratio",[5],0.00
same,"Incidence of pulmonary fibrosis, Ratio",[5],0.00
"Cc1c(N)nc(C(CC(N)=O)NCC(N)C(N)=O)nc1C(=O)NC(C(=O)NC(C)C(O)C(C)C(=O)NC(C(=O)NCCc1nc(-c2nc(C(=O)NCCC[N+](C)(C)CCC[N+](C)(C)CCCNCC3CCCCCCC3)cs2)cs1)C(C)O)C(OC1OC(CO)C(O)C(O)C1OC1OC(CO)C(O)C(OC(N)=O)C1O)c1cnc[nH]1 (stereo not shown) [Compound No. 42, 3-{N,N--Dimethyl-N--[3'-(N,N--dimethyl-N--(3""-cyclooctylmethylaminopropyl)amino)propyl]amino}propylaminoBLM]","Antimicrobial potency of Cu--free compound, against Mycobacterium smegmatis ATCC 607",[1],26000 mcg potency per mg
same,50% growth inhibition concentration (ID50) of Cu--free compound against cultured Hela cell,[2],0.51 µg/mL
same,"Antimicrobial potency of Cu--free compound, against Bacillus subtilis",[3],14600 mcg potency per mg
same,Max. T/C on Mouse Lymphocytic Leukemia P 388,[4],177%
same,"Grade of pulmonary fibrosis, %",[5],0%
same,"Incidence of pulmonary fibrosis, %",[5],0%
same,Incidence: number of mice suffering from pulmonary fibrosis,[5],0/9
same,Grade: total score of pulmonary fibrosis/total number of test animal,[5],0/27
same,"Grade of pulmonary fibrosis, Ratio",[5],0.00
same,"Incidence of pulmonary fibrosis, Ratio",[5],0.00
"Cc1c(N)nc(C(CC(N)=O)NCC(N)C(N)=O)nc1C(=O)NC(C(=O)NC(C)C(O)C(C)C(=O)NC(C(=O)NCCc1nc(-c2nc(C(=O)NCCC[N+](C)(C)CCC[N+](C)(C)CCCN(Cc3ccccc3)Cc3ccccc3)cs2)cs1)C(C)O)C(OC1OC(CO)C(O)C(O)C1OC1OC(CO)C(O)C(OC(N)=O)C1O)c1cnc[nH]1 (stereo not shown) [Compound No. 41, 3-{N,N--Dimethyl-N--[3'-(N,N--dimethyl-N--(3""-dibenzylaminopropyl)amino)propyl]amino}propylaminoBLM]","Antimicrobial potency of Cu--free compound, against Mycobacterium smegmatis ATCC 607",[1],16000 mcg potency per mg
same,50% growth inhibition concentration (ID50) of Cu--free compound against cultured Hela cell,[2],0.66 µg/mL
same,"Antimicrobial potency of Cu--free compound, against Bacillus subtilis",[3],7100 mcg potency per mg
same,Max. T/C on Mouse Lymphocytic Leukemia P 388,[4],184%
same,"Grade of pulmonary fibrosis, %",[5],0%
same,"Incidence of pulmonary fibrosis, %",[5],0%
same,Incidence: number of mice suffering from pulmonary fibrosis,[5],0/9
same,Grade: total score of pulmonary fibrosis/total number of test animal,[5],0/27
same,"Grade of pulmonary fibrosis, Ratio",[5],0.00
same,"Incidence of pulmonary fibrosis, Ratio",[5],0.00
